Test results published in patent EP0348967A2, “Synthetic lung surfactant preparation comprising lipids and polypeptides” (MERRELL PHARMACEUTICALS INC., priority 1988, dated 1990).

System: adult rat lung
Experiment: adult rat lung model (pressure-volume curve, lung compliance)
Type: in vivo
Details: pressure-volume curves (Figs. 1 and 2), three ml of the preparations of Examples 1 and 2 tested
Procedure: The synthetic surfactant preparations were tested in the adult rat lung model (Ikegami, et al., (1979) Pediatr. Res. 13, 777-780). Reference I and Reference II, consisting of DPPC, alone and dog lung surfactant, respectively, were employed as reference standards. Three ml of the preparations from each of examples 1 and 2 were tested in an adult rat lung model. […] Results are illustrated in Figures 1 and 2.

CCCCCCCCCCCCCCCC(=O)OC[C@H](COP(=O)([O-])OCC[N+](C)(C)C)OC(=O)CCCCCCCCCCCCCCC [Reference I, dipalmitoylphosphatidylcholine]
compliance of the rat lung: no effect
